Peptide text beside a SMILES is read from it.
Tested on: Gal8 and Gal9
Experiment: Galectin puncta formation by high-content microscopy in HeLa cells
Type: cell-based
Details: HeLa cells overexpressing GFP-Gal8 or GFP-Gal9, 100 μM, 1 h full medium
Procedure: (A) Analysis of the puncta formation of galectins in response to GPN. HeLa cells overexpressing YFP-fused with the indicated galectins were treated with 100 μM GPN or without (Ctrl) in full medium for 1 h and galectin puncta were quantified by HC. […] White masks, algorithm defined cell boundaries (primary objects); green masks, computer-identified galectins puncta (target objects). Data, means±SEM, n≥3 independent experiments (500 primary objects counted per well; ≥5 wells/sample per each experiment); *p<0.05, **p<0.01, † p≥0.05, ANOVA. (B) Immunoprecipitation analysis of the interactions between galectins and mTOR or RagA GTPase. HEK293T cells overexpressing FLAG-tagged galectins were subjected to anti-FLAG immunoprecipitation followed by immunoblotting for endogenous mTOR or RagA. (C) Immunoprecipitation analysis of interactions between Gal8 and mTOR protein complexes in response to GPN treatment. […] Biotinylated proteins from HEK293T cell expressing APEX2-vector or APEX2-Gal8, after GPN and biotin phenol (BP) treatment were affinity-enriched by binding to streptavidin-beads, and samples were analyzed by immunoblotting analysis for endogenous RagA, p14, mTOR or Raptor. […]
(A) HC analysis of the puncta of galectins in response to chloroquine, Bafilomycin A1 and GPN. HeLa cells overexpressing GFP-Gal8 or GFP-Gal9 were treated with 100 μM chloroquine (CQ), […] (BAF) or 100 μM GPN in full medium for 1 h, and the puncta of GFP-Gal8 or GFP-Gal9 were quantified by HC. […] Data, means±SEM, n≥3 independent experiments (500 primary objects counted per well; ≥5 wells/sample per each experiment), † p≥0.05, **p<0.01, ANOVA. […] HeLa cells expressing GFP-Gal8 were treated with 100 μM GPN in full medium for 1 h, and the overlap between GFP-Gal8 and LAMP2 were quantified by HC. […] Data, means±SEM, n≥3 independent experiments (500 primary objects counted per well; ≥5 wells/sample per each experiment), **p<0.01, ANOVA. […]

SMILES: NCC(=O)N[C@@H](Cc1ccccc1)C(=O)Nc1ccc2ccccc2c1 [GPN, glycyl-L-phenylalanine 2-naphththylamide] (HELM PEPTIDE1{G.F.[c1ccc2cc(N[*:1])ccc2c1]}$$$$V2.0)
- Gal8 and Gal9 puncta formation: formed puncta

Source: US20210069295A1, “GALECTINS CONTROL MTOR IN RESPONSE TO ENDOMEMBRANE DAMAGE AND PROVIDE A MECHANISM AND TARGET FOR THE TREATMENT OF AUTOPHAGY-RELATED DISEASES” (STC. UNM, priority 2017, published 2021)
